According to PubChem BioAssay (NCI):
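Following 48 hours of exposure in 96-well plates, responses at five concentrations were used to interpolate endpoints linearly. Here, GI50 denotes the concentration required for 50% inhibition of growth. TGI denotes the concentration required for complete inhibition of growth.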

Legend:
Assay in all cases: inhibition of tumour cell growth, NCI panel, 48 h
786-0 renal = system: 786-0 renal
A498 renal = system: A498 renal
A549 NSCLC = system: A549 NSCLC
ACHN renal = system: ACHN renal
BT-549 breast = system: BT-549 breast
CAKI-1 renal = system: CAKI-1 renal
CCRF-CEM leukemia = system: CCRF-CEM leukemia
COLO 205 colon = system: COLO 205 colon
DU-145 prostate = system: DU-145 prostate
EKVX NSCLC = system: EKVX NSCLC
HCC-2998 colon = system: HCC-2998 colon
HCT-116 colon = system: HCT-116 colon
HCT-15 colon = system: HCT-15 colon
HL-60(TB) leukemia = system: HL-60(TB) leukemia
HOP-62 NSCLC = system: HOP-62 NSCLC
HOP-92 NSCLC = system: HOP-92 NSCLC
HS 578T breast = system: HS 578T breast
HT29 colon = system: HT29 colon
IGROV1 ovarian = system: IGROV1 ovarian
K-562 leukemia = system: K-562 leukemia
KM12 colon = system: KM12 colon
LOX IMVI melanoma = system: LOX IMVI melanoma
M14 melanoma = system: M14 melanoma
MALME-3M melanoma = system: MALME-3M melanoma
MCF7 breast = system: MCF7 breast
MDA-MB-231 breast = system: MDA-MB-231 breast
MDA-MB-435 = system: MDA-MB-435
MOLT-4 leukemia = system: MOLT-4 leukemia
NCI-H226 lung = system: NCI-H226 lung
NCI-H23 lung = system: NCI-H23 lung
NCI-H460 lung = system: NCI-H460 lung
NCI-H522 lung = system: NCI-H522 lung
NCI/ADR-RES ovarian = system: NCI/ADR-RES ovarian
OVCAR-4 ovarian = system: OVCAR-4 ovarian
OVCAR-5 ovarian = system: OVCAR-5 ovarian
OVCAR-8 ovarian = system: OVCAR-8 ovarian
PC-3 prostate = system: PC-3 prostate
RPMI-8226 leukemia = system: RPMI-8226 leukemia
RXF 393 renal = system: RXF 393 renal
SF-268 CNS = system: SF-268 CNS
SF-295 CNS = system: SF-295 CNS
SF-539 CNS = system: SF-539 CNS
SK-MEL-2 melanoma = system: SK-MEL-2 melanoma
SK-MEL-28 melanoma = system: SK-MEL-28 melanoma
SK-MEL-5 melanoma = system: SK-MEL-5 melanoma
SK-OV-3 ovarian = system: SK-OV-3 ovarian
SN12C renal = system: SN12C renal
SNB-19 CNS = system: SNB-19 CNS
SNB-75 CNS = system: SNB-75 CNS
SR leukemia = system: SR leukemia
SW-620 colon = system: SW-620 colon
T-47D breast = system: T-47D breast
TK-10 renal = system: TK-10 renal
U251 CNS = system: U251 CNS
UACC-257 melanoma = system: UACC-257 melanoma
UACC-62 melanoma = system: UACC-62 melanoma
UO-31 renal = system: UO-31 renal

CN1CCN(Cc2ccc(NC(=O)c3cncc(C#Cc4cnc5ccc(OCC(C)(C)O)nn45)c3)cc2C(F)(F)F)CC1
GI50 (786-0 renal): 323 nM | TGI (786-0 renal): 960 nM | GI50 (A498 renal): 199 nM | TGI (A498 renal): 395 nM | GI50 (A549 NSCLC): 317 nM | TGI (A549 NSCLC): 1090 nM | GI50 (ACHN renal): 295 nM | TGI (ACHN renal): 1060 nM | GI50 (BT-549 breast): 386 nM | TGI (BT-549 breast): 1220 nM | GI50 (CAKI-1 renal): 183 nM | TGI (CAKI-1 renal): 528 nM | GI50 (CCRF-CEM leukemia): 336 nM | TGI (CCRF-CEM leukemia): 12500 nM | GI50 (COLO 205 colon): 178 nM | TGI (COLO 205 colon): 349 nM | GI50 (DU-145 prostate): 260 nM | TGI (DU-145 prostate): 786 nM | GI50 (EKVX NSCLC): 257 nM | TGI (EKVX NSCLC): 997 nM | GI50 (HCC-2998 colon): 334 nM | TGI (HCC-2998 colon): 1020 nM | GI50 (HCT-116 colon): 170 nM | TGI (HCT-116 colon): 889 nM | GI50 (HCT-15 colon): 287 nM | TGI (HCT-15 colon): 929 nM | GI50 (HL-60(TB) leukemia): 264 nM | TGI (HL-60(TB) leukemia): 873 nM | GI50 (HOP-62 NSCLC): 230 nM | TGI (HOP-62 NSCLC): 667 nM | GI50 (HOP-92 NSCLC): 38.5 nM | TGI (HOP-92 NSCLC): 225 nM | GI50 (HS 578T breast): 156 nM | TGI (HS 578T breast): 578 nM | GI50 (HT29 colon): 203 nM | TGI (HT29 colon): 910 nM | GI50 (IGROV1 ovarian): 167 nM | TGI (IGROV1 ovarian): 1060 nM | TGI (K-562 leukemia): 1850 nM | TGI (KM12 colon): 830 nM | GI50 (LOX IMVI melanoma): 146 nM | TGI (LOX IMVI melanoma): 300 nM | GI50 (M14 melanoma): 139 nM | TGI (M14 melanoma): 305 nM | GI50 (MALME-3M melanoma): 127 nM | TGI (MALME-3M melanoma): 370 nM | GI50 (MCF7 breast): 146 nM | TGI (MCF7 breast): 897 nM | GI50 (MDA-MB-231 breast): 114 nM | TGI (MDA-MB-231 breast): 548 nM | GI50 (MDA-MB-435): 207 nM | TGI (MDA-MB-435): 698 nM | GI50 (MOLT-4 leukemia): 269 nM | TGI (MOLT-4 leukemia): 1410 nM | GI50 (NCI-H226 lung): 148 nM | TGI (NCI-H226 lung): 1340 nM | GI50 (NCI-H23 lung): 185 nM | TGI (NCI-H23 lung): 478 nM | GI50 (NCI-H460 lung): 297 nM | TGI (NCI-H460 lung): 851 nM | GI50 (NCI-H522 lung): 179 nM | TGI (NCI-H522 lung): 370 nM | GI50 (NCI/ADR-RES ovarian): 1640 nM | TGI (NCI/ADR-RES ovarian): 4680 nM | GI50 (OVCAR-4 ovarian): 217 nM | TGI (OVCAR-4 ovarian): 1040 nM | GI50 (OVCAR-5 ovarian): 295 nM | TGI (OVCAR-5 ovarian): 1200 nM | GI50 (OVCAR-8 ovarian): 304 nM | TGI (OVCAR-8 ovarian): 1050 nM | GI50 (PC-3 prostate): 332 nM | TGI (PC-3 prostate): 1750 nM | GI50 (RPMI-8226 leukemia): 344 nM | TGI (RPMI-8226 leukemia): 1380 nM | GI50 (RXF 393 renal): 181 nM | TGI (RXF 393 renal): 392 nM | GI50 (SF-268 CNS): 180 nM | TGI (SF-268 CNS): 448 nM | GI50 (SF-295 CNS): 726 nM | TGI (SF-295 CNS): 2060 nM | GI50 (SF-539 CNS): 117 nM | TGI (SF-539 CNS): 403 nM | GI50 (SK-MEL-2 melanoma): 177 nM | TGI (SK-MEL-2 melanoma): 349 nM | GI50 (SK-MEL-28 melanoma): 237 nM | TGI (SK-MEL-28 melanoma): 726 nM | GI50 (SK-MEL-5 melanoma): 775 nM | TGI (SK-MEL-5 melanoma): 2050 nM | GI50 (SK-OV-3 ovarian): 378 nM | TGI (SK-OV-3 ovarian): 1160 nM | GI50 (SN12C renal): 153 nM | TGI (SN12C renal): 864 nM | GI50 (SNB-19 CNS): 356 nM | TGI (SNB-19 CNS): 1360 nM | GI50 (SNB-75 CNS): 210 nM | TGI (SNB-75 CNS): 572 nM | GI50 (SR leukemia): 249 nM | TGI (SR leukemia): 852 nM | GI50 (SW-620 colon): 202 nM | TGI (SW-620 colon): 585 nM | GI50 (T-47D breast): 369 nM | TGI (T-47D breast): 1910 nM | GI50 (TK-10 renal): 226 nM | TGI (TK-10 renal): 550 nM | GI50 (U251 CNS): 329 nM | TGI (U251 CNS): 1120 nM | GI50 (UACC-257 melanoma): 318 nM | TGI (UACC-257 melanoma): 1200 nM | GI50 (UACC-62 melanoma): 199 nM | TGI (UACC-62 melanoma): 843 nM | GI50 (UO-31 renal): 339 nM | TGI (UO-31 renal): 1060 nM

COc1ccc(/C=N/Nc2ccnc3cc(Cl)ccc23)cc1Cl
GI50 (A498 renal): 1720 nM | TGI (A498 renal): 3220 nM | GI50 (A549 NSCLC): 1770 nM | TGI (A549 NSCLC): 3570 nM | GI50 (ACHN renal): 1950 nM | TGI (ACHN renal): 3420 nM | GI50 (CAKI-1 renal): 1680 nM | TGI (CAKI-1 renal): 3100 nM | GI50 (CCRF-CEM leukemia): 2140 nM | TGI (CCRF-CEM leukemia): 5930 nM | GI50 (COLO 205 colon): 1820 nM | TGI (COLO 205 colon): 3370 nM | GI50 (HL-60(TB) leukemia): 1960 nM | TGI (HL-60(TB) leukemia): 4790 nM | GI50 (HOP-92 NSCLC): 1380 nM | TGI (HOP-92 NSCLC): 2950 nM | GI50 (HS 578T breast): 1990 nM | TGI (HS 578T breast): 4280 nM | GI50 (HT29 colon): 1530 nM | TGI (HT29 colon): 3010 nM | GI50 (IGROV1 ovarian): 1910 nM | TGI (IGROV1 ovarian): 3710 nM | GI50 (KM12 colon): 2080 nM | TGI (KM12 colon): 4320 nM | GI50 (MALME-3M melanoma): 1900 nM | TGI (MALME-3M melanoma): 3540 nM | GI50 (MDA-MB-231 breast): 1930 nM | TGI (MDA-MB-231 breast): 3550 nM | GI50 (MDA-MB-435): 1790 nM | TGI (MDA-MB-435): 3390 nM | GI50 (MOLT-4 leukemia): 2200 nM | TGI (MOLT-4 leukemia): 5350 nM | GI50 (NCI-H460 lung): 2040 nM | TGI (NCI-H460 lung): 4030 nM | GI50 (NCI-H522 lung): 1690 nM | TGI (NCI-H522 lung): 3300 nM | GI50 (OVCAR-4 ovarian): 1830 nM | TGI (OVCAR-4 ovarian): 3560 nM | GI50 (OVCAR-5 ovarian): 1850 nM | TGI (OVCAR-5 ovarian): 3490 nM | GI50 (PC-3 prostate): 1640 nM | TGI (PC-3 prostate): 3120 nM | GI50 (RPMI-8226 leukemia): 2200 nM | TGI (RPMI-8226 leukemia): 5240 nM | GI50 (RXF 393 renal): 1750 nM | TGI (RXF 393 renal): 3210 nM | GI50 (SF-268 CNS): 1900 nM | TGI (SF-268 CNS): 3690 nM | GI50 (SF-295 CNS): 1790 nM | TGI (SF-295 CNS): 3360 nM | GI50 (SF-539 CNS): 1800 nM | TGI (SF-539 CNS): 3260 nM | GI50 (SK-MEL-2 melanoma): 1790 nM | TGI (SK-MEL-2 melanoma): 3330 nM | GI50 (SK-MEL-28 melanoma): 1750 nM | TGI (SK-MEL-28 melanoma): 3210 nM | GI50 (SK-MEL-5 melanoma): 1770 nM | TGI (SK-MEL-5 melanoma): 3210 nM | GI50 (SK-OV-3 ovarian): 1820 nM | TGI (SK-OV-3 ovarian): 3270 nM | GI50 (SN12C renal): 1750 nM | TGI (SN12C renal): 3440 nM | GI50 (SNB-19 CNS): 1930 nM | TGI (SNB-19 CNS): 3730 nM | GI50 (SNB-75 CNS): 1550 nM | TGI (SNB-75 CNS): 3060 nM | GI50 (SR leukemia): 707 nM | TGI (SR leukemia): 5510 nM | GI50 (SW-620 colon): 1900 nM | TGI (SW-620 colon): 3760 nM | GI50 (TK-10 renal): 1740 nM | TGI (TK-10 renal): 3120 nM | GI50 (U251 CNS): 1740 nM | TGI (U251 CNS): 3370 nM | GI50 (UACC-257 melanoma): 1690 nM | TGI (UACC-257 melanoma): 3290 nM | GI50 (UACC-62 melanoma): 1760 nM | TGI (UACC-62 melanoma): 3270 nM | GI50 (UO-31 renal): 1680 nM | TGI (UO-31 renal): 3100 nM
